# Assays:
# [1] = Solubility of corallopyronin A in ethanol; assay type: physicochemical
# [2] = Pharmacokinetic analysis in vivo in BALB/c mice; parameters: species or system BALB/c female mice; details: PO, Example 13, compared to IV set to 100%
# Experimental: Pharmacokinetic analysis was performed in vivo in fed BALB/c female mice (n=4) (Study DZIF11). The solid formulation was suspended right before administration in PBS (phosphate buffered saline; pH=7.4) and was administered via gavage (36 mg/kg CorA, 10 mL/kg). Blood samples from the vena facialis were collected after 5, 10, 15, 30, 180, and 480 min. The samples were centrifuges for 10 min at 4° C. and 15000 g. The generated plasma was mixed in a ration of 1:3 with ice-cold acetonitrile (Bernd Kraft GmbH, Duisburg). The mixture was vortexed for 10 sec and centrifuged for 25 min at 4° C. and 11600 g. […] For the gradient method starting from 70% A/30% B to 20% A/80% B stepwise within 30 min, the mobile phases A (acetonitrile/water (Bernd Kraft GmbH, Duisburg) 5/95 with 5 mM ammonium acetate (Merck KGaA, Darmstadt) and 40 μL acetic acid (Sigma-Aldrich Chemie GmbH, Steinheim) per Liter) and B (acetonitrile/water 95/5 with 5 mM ammonium acetate and 40 μL acetic acid per Liter) enabled to quantitate corallopyronin A precisely at 300 nm at a flow rate of 0.3 mL/min and a column temperature of 30° C. The samples were quantitated via external reference standard. The content of the corallopyronin A reference material was analyzed by ^1H-NMR.
# Plasma concentration-time profiles were generated and pharmacokinetic parameters calculated. […]
# [3] = Stability analysis (storage, CorA content by HPLC-DAD); assay type: physicochemical
# Experimental: The stability of the spray dried amorphous formulation of corallopyronin A embedded in polyvinylpyrrolidone was analyzed after storing samples in drying cabinets at 25° C./60% relative humidity (RH) and under accelerated conditions at 40° C./75% RH for 7, 14, 28 days and 3 months. The samples were stored in closed twist-off glass vials under nitrogen and in the presence of silica desiccant. The content was analyzed by High-Performance Liquid Chromatography with Diode-Array Detection (HPLC-DAD). The samples were, therefore, dissolved in acetonitrile (Bernd Kraft GmbH, Duisburg). The HPLC measurements were performed on a Waters Alliance e2695 separation module connected to a waters 2998 PDA detector. A waters XBridge® Shield RP18, 3.5 μm, 2.1×100 mm, 130 A column was used. For the gradient method starting from 70% A/30% B to 20% A/80% B stepwise within 30 min, the mobile phases A (acetonitrile/water (Bernd Kraft GmbH, Duisburg) 5/95 with 5 mM ammonium acetate (Merck KGaA, Darmstadt) and 40 μL acetic acid (Sigma-Aldrich Chemie GmbH, Steinheim) per Liter) and B (acetonitrile/water 95/5 with 5 mM ammonium acetate and 40 μL acetic acid per liter) enabled to quantitate corallopyronin A precisely at 300 nm at a flow rate of 0.3 mL/min and a column temperature of 30° C. The samples were quantitated via external reference standard. The content of the corallopyronin A reference material was analyzed by ^1H-NMR. The following table 2 summarizes the results of the stability analysis.
# [4] = Biphasic dissolution test (BiPHa+); assay type: physicochemical; details: organic phase 1-decanol
# From the text: To simulate the gastrointestinal properties to obtain in vivo predictive results, the pH-profile, bile salt concentration and gastrointestinal passage time were adjusted in the aqueous phase to mimic human gut conditions. […] An organic phase of 1-decanol above the aqueous phase imitated the fraction absorbed from the gut. As a test model, the profile of a person without prior food intake was chosen. Therefore, FaSSIF-V2 medium, which represents the bile salts concentration of a fasted human was used. […] To generate an in-situ biorelevant aqueous medium for the fasted state, biorelevant surfactants, namely sodium-taurocholate (3 mM) and lecithin (0.2 mM), were added.
# Prior to the start of the experiments, both phases, 1-decanol and the acidic aqueous phase, were saturated with each other.
# After 30 min FaSSIF-V2 concentrate (sodium-taurocholate and lecithin) was added simultaneously to the addition of citrate-phosphate buffer (tri-potassium phosphate and potassium citrate) resulting in a first pH-shift from pH 1 to pH 5.5, simulating the duodenum. […] The adjusted buffers were titrated by 0.1 M NaOH and 0.1 M HCl (pH 5.5-6.8). The whole dissolution took 4.5 hours.
substance,measurement,setting,value
"methyl N-[(E)-5-[6-hydroxy-5-[(2E,4E,9Z,13E)-8-hydroxy-2,5,9-trimethylpentadeca-2,4,9,13-tetraenoyl]-4-oxopyran-2-yl]hex-1-enyl]carbamate [CorA]",amount that can be dissolved in ethanol,[1],100 mg/mL
same,Absolute Bioavailability,[2],11%
same,CorA Content,"[3]; 3 months, 25° C., 60% RH, listed as Corallopyronin A",39%
same,CorA Content,"[3]; 3 months, 25° C., 60% RH, listed as corallopyronin A",below 40%
same,CorA Content,"[3]; 3 months, 40° C., 75% RH, listed as Corallopyronin A",6%
same,CorA Content,"[3]; 3 months, 40° C., 75% RH, listed as corallopyronin A",below 10%
same,CorA Content,"[3]; 7 days, 25° C., 60% RH, listed as Corallopyronin A",85%
same,CorA Content,"[3]; 7 days, 25° C., 60% RH, listed as corallopyronin A",below 90%
same,CorA Content,"[3]; 7 days, 40° C., 75% RH, listed as Corallopyronin A",47%
same,CorA Content,"[3]; 7 days, 40° C., 75% RH, listed as corallopyronin A",below 50%
same,CorA Content,"[3]; 14 days, 25° C., 60% RH",76%
same,CorA Content,"[3]; 14 days, 40° C., 75% RH",31%
same,CorA Content,"[3]; 28 days, 25° C., 60% RH",63%
same,CorA Content,"[3]; 28 days, 40° C., 75% RH",17%
same,CorA Content,[3]; storage duration 0,99%
same,predicted absorption,"[4]; FaSSIF-V2 fasted human, pH 1 to 5.5 to 6.8, 4.5 hours, about 10 mg CorA",7.7%
same,Maximum Partitioned Drug in the Organic Phase (%),"[4]; fasted human gut conditions, 4.5 h",8%

# Source: patent US20230181522A1, “SOLID AND LIQUISOLID FORMULATIONS OF CORALLOPYRONIN A” (RHEINISCHE FRIEDRICH-WILHELMS-UNIVERSITÄT BONN, priority 2020, published 2023)
